Results on 17 molecules are retold here after publication PMC5607165, “Synthesis of UDP-apiose in Bacteria: The marine phototroph Geminicoccus roseus and the plant pathogen Xanthomonas pisi” (PLoS ONE, 2017).

For one data set, the target named is GrUAS (Geminicoccus roseus, UniProt A0A291B0F6). The data set can be described thus: HPLC, UDP-GlcA consumption with additive. Conditions: 1 mM UDP-GlcA, 1 mM NAD+, 50 mM Tris-HCl pH 7.9, 37 °C; additive concentration not given; residual activity versus water. In kind it is biochemical. The text has this:
HPLC, UDP-GlcA consumption with additive on GrUAS

Another data set addresses T1, XpUAS (Xanthomonas pisi, UniProt A0A291B0F1).
T1 construct: gene XpiCFBP4643_06440
T1 sequence (A0A291B0F1 1-375): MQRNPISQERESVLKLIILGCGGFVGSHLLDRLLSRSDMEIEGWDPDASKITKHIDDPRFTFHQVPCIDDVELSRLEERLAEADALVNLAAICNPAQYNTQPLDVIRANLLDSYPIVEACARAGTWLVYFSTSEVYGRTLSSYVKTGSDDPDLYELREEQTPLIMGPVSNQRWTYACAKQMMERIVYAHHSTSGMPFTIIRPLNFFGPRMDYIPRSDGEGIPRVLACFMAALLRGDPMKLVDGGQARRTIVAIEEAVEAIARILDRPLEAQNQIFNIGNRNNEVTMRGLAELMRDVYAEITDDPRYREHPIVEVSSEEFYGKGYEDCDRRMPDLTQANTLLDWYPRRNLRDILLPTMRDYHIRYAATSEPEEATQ
The data set can be described thus: HILIC-ESI-MS/MS and 1H NMR of products. In kind it is biochemical. As to conditions: 1 mM NAD+, 1 mM UDP-GlcA, 50 mM Tris-HCl pH 7.9, 37 °C; products UDP-apiose and UDP-xylose.

The next data set concerns the target T2, CeUAS (Candidatus Entotheonella factor, UniProt W4LSK8).
T2 construct: gene ETSY1_09345
The data set can be described thus: HILIC-ESI-MS/MS and 1H NMR of products. In kind it is biochemical. As to conditions: 1 mM NAD+, 1 mM UDP-GlcA, 50 mM Tris-HCl pH 7.9, 37 °C; products UDP-apiose and UDP-xylose.

For data set [1], the target named is Geminicoccus roseus UDP-apiose/UDP-xylose synthase (GrUAS), recombinant His6-tagged (Geminicoccus roseus). The data set can be described thus: SEC; Superdex75 gel filtration of purified recombinant GrUAS; mass estimated from the elution times of standard protein markers; activity of the fractions determined by HPLC; method as previously described [31].
Substrate in data set [2]: O=C(O)[C@H]1O[C@H](OP(=O)(O)OP(=O)(O)OC[C@H]2O[C@@H](n3ccc(=O)[nH]c3=O)[C@H](O)[C@@H]2O)[C@H](O)[C@@H](O)[C@@H]1O
The data set can be described thus: HPLC anion exchange, UDP-GlcA depletion. In kind it is biochemical, Geminicoccus roseus. Conditions: 1 mM NAD+, 50 mM Tris-HCl pH 7.9, 37 °C, 7 min. The text has this: HPLC anion exchange, UDP-GlcA depletion on GrUAS

T2 sequence (W4LSK8 entry or part of it): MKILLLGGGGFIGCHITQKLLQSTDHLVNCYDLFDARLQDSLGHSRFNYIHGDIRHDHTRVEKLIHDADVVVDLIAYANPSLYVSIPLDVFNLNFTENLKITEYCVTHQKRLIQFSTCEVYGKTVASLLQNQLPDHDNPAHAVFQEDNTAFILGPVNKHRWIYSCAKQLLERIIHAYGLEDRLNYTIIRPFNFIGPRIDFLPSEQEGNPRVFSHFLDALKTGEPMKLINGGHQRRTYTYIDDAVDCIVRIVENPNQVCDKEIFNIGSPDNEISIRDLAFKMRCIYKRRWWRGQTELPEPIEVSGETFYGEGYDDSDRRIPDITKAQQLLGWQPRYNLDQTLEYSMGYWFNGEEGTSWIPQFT

As to `Nc1nc2c(ncn2[C@@H]2O[C@H](COP(=O)(O)OP(=O)(O)O)[C@@H](O)[C@H]2O)c(=O)[nH]1` [GDP], on GrUAS, the “Relative activity (%)^a” value is 85.2 ± 7.9%. In the case of `O=c1ccn([C@@H]2O[C@H](COP(=O)(O)O)[C@@H](O)[C@H]2O)c(=O)[nH]1` [UMP], at GrUAS, the “Relative activity (%)^a” value was 92.6 ± 5.0%. With `O=C(O)[C@H]1O[C@H](OP(=O)(O)OP(=O)(O)OC[C@H]2O[C@@H](n3ccc(=O)[nH]c3=O)[C@H](O)[C@@H]2O)[C@H](O)[C@@H](O)[C@@H]1O` [UDP-GlcA], the “HILIC-ESI-MS/MS and 1H NMR of products” value on XpUAS and at CeUAS was “Each purified UAS was shown by HILIC-ESI-MS/MS to convert UDP-GlcA to two UDP-pentose products” throughout.

Take `O=c1ccn([C@@H]2O[C@H](COP(=O)(O)OP(=O)(O)O)[C@@H](O)[C@H]2O)c(=O)[nH]1` [UDP]: the “Relative activity (%)^a” value at GrUAS is reported as 72.6 ± 5.5%.

As to `Cc1cn([C@H]2C[C@H](O)[C@@H](COP(=O)(O)OP(=O)(O)O)O2)c(=O)[nH]c1=O` [TDP], on GrUAS, the “Relative activity (%)^a” value came out at 85.0 ± 4.8%. For the molecule `Nc1nc2c(ncn2[C@@H]2O[C@H](COP(=O)(O)O)[C@@H](O)[C@H]2O)c(=O)[nH]1` [GMP], on GrUAS, the “Relative activity (%)^a” value is reported as 94.3 ± 3.7%. By stoichiometry N is commonly meant a count of units in the complex or per binding partner. Turning to “Geminicoccus roseus UDP-apiose/UDP-xylose synthase (GrUAS), recombinant His6-tagged (enzyme)”, in data set [1], the stoichiometry N was 2. Take `O=c1ccn([C@@H]2O[C@H](COP(=O)(O)OP(=O)(O)O[C@H]3OC[C@@H](O)[C@H](O)[C@H]3O)[C@@H](O)[C@H]2O)c(=O)[nH]1` [UDP-xylose]: the “Relative activity (%)^a” value on GrUAS turned out to be 91.4 ± 5.6%.

Take `NC(=O)C1=CN([C@@H]2O[C@H](COP(=O)(O)OP(=O)(O)OC[C@H]3O[C@@H](n4cnc5c(N)ncnc54)[C@H](OP(=O)(O)O)[C@@H]3O)[C@@H](O)[C@H]2O)C=CC1` [NADPH]: the “Relative activity (%)^a” value at GrUAS came out at 82.6 ± 0.9%. In the case of `Nc1ccn([C@@H]2O[C@H](COP(=O)(O)O)[C@@H](O)[C@H]2O)c(=O)n1` [CMP], the “Relative activity (%)^a” value at GrUAS is reported as 93.8 ± 4.5%.

Turning to `Nc1ccn([C@@H]2O[C@H](COP(=O)(O)OP(=O)(O)O)[C@@H](O)[C@H]2O)c(=O)n1` [CDP], on GrUAS, the “Relative activity (%)^a” value is recorded as 85.3 ± 4.6%. Same read-out and setting: next, `O=C(O)[C@H]1O[C@H](OP(=O)(O)OP(=O)(O)OC[C@H]2O[C@@H](n3ccc(=O)[nH]c3=O)[C@H](O)[C@@H]2O)[C@H](O)[C@@H](O)[C@H]1O` [UDP-galacturonic acid]: 33.4 ± 9.5%. For `NC(=O)C1=CN([C@@H]2O[C@H](COP(=O)(O)OP(=O)(O)OC[C@H]3O[C@@H](n4cnc5c(N)ncnc54)[C@H](O)[C@@H]3O)[C@@H](O)[C@H]2O)C=CC1` [NADH], the “Relative activity (%)^a” value on GrUAS came to 105.3 ± 1.9%. Same read-out and setting: next, `Cc1cn([C@H]2C[C@H](O)[C@@H](COP(=O)(O)O)O2)c(=O)[nH]c1=O` [TMP]: 87.9 ± 4.9%. On the same count and under the same terms, to `NC(=O)c1ccc[n+]([C@@H]2O[C@H](COP(=O)(O)OP(=O)(O)OC[C@H]3O[C@@H](n4cnc5c(N)ncnc54)[C@H](OP(=O)(O)O)[C@@H]3O)[C@@H](O)[C@H]2O)c1` [NADP] belongs 79.6 ± 3.3%; to `O=c1ccn([C@@H]2O[C@H](COP(=O)(O)OP(=O)(O)O[C@H]3OC[C@H](O)[C@H](O)[C@H]3O)[C@@H](O)[C@H]2O)c(=O)[nH]1` [UDP-arabinose], 88.5 ± 5.6%.

B1: GrUAS (Geminicoccus roseus) (protein)
chain: MRVVILGCGGFVGSHLLDNLLRDESYLIEGWDPEDRKIRQHLDNPRFTLHRSIANAPEALVEVERAIRECDVVVNLAAICNPADYNTRPLSVIRANLFEVYPIVELCAKYKRWLVSFSTSETYGRTIASYLPAGTYDDPELYELREDETPLIMGPIRNQRWTYACAKQMTERLIYAHHDEEGLPFTIIRPLNFFGPRMDYIPTRDGDGVPRVLACFMAALLSGEPMQLVDGGQARRTIVSIYEAVDAIRRVLERPETSQNQIFNIGNPNNEVTIAELADAMRRTYARITGDARYNDHPIVVTTADAFYGAGYEDCDRRMPDISKAERLLGWVPRMSLAEVLYGTMQSYHDTYTAPKAA
One may read the Km as the substrate concentration at which the rate is half of its maximum. In general, Vmax refers to the rate approached at saturating substrate. B1: in data set [2], the Km was 251 ± 44.6 µM and the maximal velocity (Vmax) worked out at 4.22 µM/min.
